According to patent publication US20060281700A1, “SYNERGISTIC MODULATION OF FLT3 KINASE USING AMINOPYRIMIDINES KINASE MODULATORS” (priority 2005, published 2006):

Biological target: T1, wild-type FLT3 phosphorylation in Baf3 FLT3 cells (Homo sapiens, UniProt P36888)
T1 sequence (P36888 27-993): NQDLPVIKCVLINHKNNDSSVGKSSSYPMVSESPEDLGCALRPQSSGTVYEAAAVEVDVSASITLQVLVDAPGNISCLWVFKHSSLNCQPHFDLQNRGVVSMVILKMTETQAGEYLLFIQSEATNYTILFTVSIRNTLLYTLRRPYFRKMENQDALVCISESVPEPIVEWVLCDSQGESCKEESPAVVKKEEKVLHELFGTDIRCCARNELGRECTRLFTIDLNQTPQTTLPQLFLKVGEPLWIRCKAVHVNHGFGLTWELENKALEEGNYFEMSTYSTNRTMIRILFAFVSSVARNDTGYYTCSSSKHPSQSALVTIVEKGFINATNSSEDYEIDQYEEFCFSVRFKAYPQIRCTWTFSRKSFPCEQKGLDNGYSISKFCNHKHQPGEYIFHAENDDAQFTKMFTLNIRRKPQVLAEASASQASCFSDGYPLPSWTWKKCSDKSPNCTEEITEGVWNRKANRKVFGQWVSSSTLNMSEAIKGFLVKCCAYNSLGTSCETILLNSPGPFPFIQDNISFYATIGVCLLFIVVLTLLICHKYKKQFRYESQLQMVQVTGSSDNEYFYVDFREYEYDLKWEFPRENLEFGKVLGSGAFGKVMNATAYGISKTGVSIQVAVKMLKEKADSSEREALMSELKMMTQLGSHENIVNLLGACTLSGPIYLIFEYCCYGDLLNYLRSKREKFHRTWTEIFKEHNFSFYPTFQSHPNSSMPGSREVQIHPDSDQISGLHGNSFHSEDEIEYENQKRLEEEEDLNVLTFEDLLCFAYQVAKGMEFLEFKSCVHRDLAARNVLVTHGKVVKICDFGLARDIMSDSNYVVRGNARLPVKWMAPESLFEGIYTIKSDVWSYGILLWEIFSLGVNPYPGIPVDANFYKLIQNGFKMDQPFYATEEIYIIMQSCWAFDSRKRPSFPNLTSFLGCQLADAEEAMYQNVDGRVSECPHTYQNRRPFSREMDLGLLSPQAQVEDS
Test: Cell-Based FLT3 Receptor Elisa
Details: 1 hour compound, 100 ng/mL Flt ligand 10 min; uncertainty ±20%
Procedure: Cell-Based FLT3 Receptor Elisa
Specific cellular inhibition of FLT ligand-induced wild-type FLT3 phosphorylation was measured in the following manner: Baf3 FLT3 cells overexpressing the FLT3 receptor were obtained from Dr. Michael Heinrich (Oregon Health and Sciences University). The Baf3 FLT3 cell lines were created by stable transfection of parental Baf3 cells (a murine B cell lymphoma line dependent on the cytokine IL-3 for growth) with wild-type FLT3. Cells were selected for their ability to grow in the absence of IL-3 and in the presence of FLT3 ligand.
Baf3 cells were maintained in RPMI 1640 with 10% FBS, penn/strep and 10 ng/ml FLT ligand at 37° C., 5% CO2. To measure direct inhibition of the wild-type FLT3 receptor activity and phosphorylation a sandwich ELISA method was developed similar to those developed for other RTKs (see Sadick, M D, Sliwkowski, M X, Nuijens, A, Bald, L, Chiang, N, Lofgren, J A, Wong W L T. Analysis of Heregulin-Induced ErbB2 Phosphorylation with a High-Throughput Kinase Receptor Activation Enzyme-Linked Immunsorbent Assay, Analytical Biochemistry. 1996; 235:207-214 and Baumann C A, Zeng L, Donatelli R R, Maroney A C. Development of a quantitative, high-throughput cell-based enzyme-linked immunosorbent assay for detection of colony-stimulating factor-1 receptor tyrosine kinase inhibitors. J Biochem Biophys Methods. 2004; 60:69-79.). 200 μL of Baf3FLT3 cells (1×10^6/mL) were plated in 96 well dishes in RPMI 1640 with 0.5% serum and 0.01 ng/mL IL-3 for 16 hours prior to 1 hour compound or DMSO vehicle incubation. Cells were treated with 100 ng/mL Flt ligand (R&D Systems Cat# 308-FK) for 10 min. at 37° C. Cells were pelleted, washed and lysed in 100 ul lysis buffer (50 mM Hepes, 150 mM NaCl, 10% Glycerol, 1% Triton-X-100, 10 mM NaF, 1 mM EDTA, 1.5 mM MgCl2, 10 mM NaPyrophosphate) supplemented with phosphatase (Sigma Cat# P2850) and protease inhibitors (Sigma Cat #P8340). Lysates were cleared by centrifugation at 1000×g for 5 minutes at 4° C. Cell lysates were transferred to white wall 96 well microtiter (Costar #9018) plates coated with 50 ng/well anti-FLT3 antibody (Santa Cruz Cat# sc-480) and blocked with SeaBlock reagent (Pierce Cat#37527). Lysates were incubated at 4° C. for 2 hours. Plates were washed 3× with 200 ul/well PBS/0.1% Triton-X-100. Plates were then incubated with 1:8000 dilution of HRP-conjugated anti-phosphotyrosine antibody (Clone 4G10, Upstate Biotechnology Cat#16-105) for 1 hour at room temperature. Plates were washed 3× with 200 ul/well PBS/0.1% Triton-X-100. Signal detection with Super Signal Pico reagent (Pierce Cat#37070) was done according to manufacturer's instruction with a Berthold microplate luminometer. All data points are an average of triplicate samples. […] Inhibition and IC50 data analysis was done with GraphPad Prism using a non-linear regression fit with a multiparamater, sigmoidal dose-response (variable slope) equation.

Row | IC50 [nM] | SMILES
1 | 127 | CO/N=C/c1c(N)ncnc1N1CCC(NC(=O)Nc2ccc(N3CCCCC3)cc2)C1 (centres unmarked) [Number 9, 1-{1-[6-Amino-5-(methoxyimino-methyl)-pyrimidin-4-yl]-pyrrolidin-3-yl}-3-(4-piperidin-1-yl-phenyl)-urea]
2 | 78 | CO/N=C/c1c(N)ncnc1N1CCC(NC(=O)Nc2ccc(Cl)cc2)CC1 [Number 25, 1-{1-[6-Amino-5-(methoxyimino-methyl)-pyrimidin-4-yl]-piperidin-4-yl}-3-(4-chloro-phenyl)-urea]
